Results from patent publication US20120021905A1, “Pesticidal Mixtures” (priority 2009, published 2012).
Like-named read-outs stand apart in the source and are kept apart here.

Key:
Conditions in all cases: 7 days after inoculation, 405 nm
Pyricularia oryzae = format: cell-based
Septoria tritici = test system: Septoria tritici
Botrytis cinerea = assay: Microtest: activity against the grey mold Botrytis cinerea in the microtiterplate test (Botrci); format: cell-based

O=[N+]([O-])NC1=NCCN1Cc1ccc(Cl)nc1 [Imidacloprid, imidacloprid] showed an Observed efficacy (Pyricularia oryzae; 63 ppm) of 0 and an Observed efficacy (Septoria tritici; 4 ppm) of 2.

In the case of COC(=O)N(OC)c1ccccc1COc1ccn(-c2ccc(Cl)cc2)n1 [Pyraclostrobin], the Observed efficacy (Pyricularia oryzae; 0.001 ppm) is reported as 21 and the Observed efficacy (Septoria tritici; 0.004 ppm) is reported as 49.

In the case of C/C(=N\C#N)N(C)Cc1ccc(Cl)nc1 [acetamipyrid], the Observed efficacy (Pyricularia oryzae; 63 ppm) is reported as 0.

In the case of CN/C(=N\[N+](=O)[O-])NCc1cnc(Cl)s1 [clothianidin], the Observed efficacy (Botrytis cinerea; 16 ppm) is reported as 0.

N#Cc1nn(-c2c(Cl)cc(C(F)(F)F)cc2Cl)c(N)c1[S+]([O-])C(F)(F)F (stereo not drawn) [fipronil] gave an Observed efficacy (Botrytis cinerea; 0.016 ppm) of 0 and an Observed efficacy (Pyricularia oryzae; 0.063 ppm) of 0.

For COCC(=O)N(c1c(C)cccc1C)C(C)C(=O)OC (stereo not drawn) [metalaxyl, Metalaxyl], the Observed efficacy (Pyricularia oryzae; 4 ppm) was 0.

CN1COCN(Cc2cnc(Cl)s2)/C1=N\[N+](=O)[O-] [thiamethoxam] showed an Observed efficacy (Botrytis cinerea; 16 ppm) of 0, an Observed efficacy (Pyricularia oryzae; 1 ppm) of 41 and an Observed efficacy (Septoria tritici; 1 ppm) of 62.
